Where “and” joins values, the source holds several entries; their conditions need not be identical. Equal values may be shown once. Inconclusive results and toxic doses are left out.
System: L1210 leukemia ip in BDF1 mice, survival T/C
Assay: NCI In Vivo Anticancer Drug Screen. Data for tumor model L1210 Leukemia (intraperitoneal) in B6D2F1 (BDF1) mice
Details: endpoint: mean survival time, higher = longer survival
Outline: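 Read-out is survival time, reported as the treated-group measurement over the vehicle-control measurement.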

[1] = dose: 100.0 mg/kg/injection, schedule: Q04DX003 (ip), vehicle: saline with Tween-80
[2] = dose: 200.0 mg/kg/injection, schedule: Q04DX003 (ip), vehicle: saline with Tween-80
[3] = dose: 400.0 mg/kg/injection, schedule: Q04DX003 (ip), vehicle: saline with Tween-80
[4] = dose: 100.0 mg/kg/injection, schedule: Q04DX002 (ip), vehicle: saline with Tween-80
[5] = dose: 200.0 mg/kg/injection, schedule: Q04DX002 (ip), vehicle: saline with Tween-80
[6] = dose: 400.0 mg/kg/injection, schedule: Q04DX002 (ip), vehicle: saline with Tween-80
[7] = dose: 100.0 mg/kg/injection, schedule: Q04DX003 (ip), vehicle: Klucel (hydroxypropylcellulose) (HPC)
[8] = dose: 200.0 mg/kg/injection, schedule: Q04DX003 (ip), vehicle: Klucel (hydroxypropylcellulose) (HPC)
[9] = dose: 400.0 mg/kg/injection, schedule: Q04DX003 (ip), vehicle: Klucel (hydroxypropylcellulose) (HPC)
[10] = dose: 25.0 mg/kg/injection, schedule: Q01DX009 (ip), vehicle: saline
[11] = dose: 100.0 mg/kg/injection, schedule: Q01DX009 (ip), vehicle: saline
[12] = dose: 100.0 mg/kg/injection, schedule: Q01DX009 (ip), vehicle: Klucel (hydroxypropylcellulose) (HPC)
[13] = dose: 200.0 mg/kg/injection, schedule: Q01DX009 (ip), vehicle: Klucel (hydroxypropylcellulose) (HPC)
[14] = dose: 25.0 mg/kg/injection, schedule: Q04DX002 (ip), vehicle: Klucel (hydroxypropylcellulose) (HPC)
[15] = dose: 150.0 mg/kg/injection, schedule: Q04DX003 (ip), vehicle: saline
[16] = dose: 100.0 mg/kg/injection, schedule: Q01DX009 (ip), vehicle: saline with Tween-80
[17] = dose: 400.0 mg/kg/injection, schedule: Q01DX009 (ip), vehicle: Klucel (hydroxypropylcellulose) (HPC)

With `Cc1ccc(S(=O)(=O)CC(=O)NC(C)C)cc1` the T/C [1] was 100 % of control, the T/C [2] was 110 % of control and the T/C [3] was 97 % of control.
For `CCN(CC)C(=S)SC(=S)N(CC)CC`, the T/C (dose: 100.0 mg/kg/injection, schedule: Q04DX002 (ip), vehicle: gum acacia) was 103 % of control, the T/C (dose: 200.0 mg/kg/injection, schedule: Q04DX002 (ip), vehicle: gum acacia) was 103 % of control and the T/C (dose: 400.0 mg/kg/injection, schedule: Q04DX002 (ip), vehicle: gum acacia) was 89 % of control.
In the case of `CCCCC(CCC)CCC`, the T/C [4] was 103 % of control, the T/C [5] was 94 % of control and the T/C [6] was 106 % of control.
For `Cc1ccc(S(=O)(=O)N=Nc2c(O)[nH]c3cc(O)c(C(=O)O)cc23)cc1`, the T/C (dose: 50.0 mg/kg/injection, schedule: Q04DX003 (ip), vehicle: Klucel (hydroxypropylcellulose) (HPC)) was 103 % of control, the T/C [7] was 92 % of control and the T/C [1] was 100 % of control. For the same compound, the T/C [8] was 92 % of control and 98 % of control, the T/C [2] was 110 % of control and the T/C [9] was 95 % of control. The T/C [3] was 110 % of control.
For `CCN(CC)CCOC(=S)Nc1ccccc1`, the T/C [10] was 100 % of control, the T/C (dose: 50.0 mg/kg/injection, schedule: Q01DX009 (ip), vehicle: saline) was 109 % of control and the T/C [11] was 96 % of control and 105 % of control.
In the case of `C[n+]1cccc2cccc(N)c21`, the T/C (dose: 10.0 mg/kg/injection, schedule: Q01DX001 (ip), vehicle: other) was 105 % of control, the T/C (dose: 20.0 mg/kg/injection, schedule: Q01DX001 (ip), vehicle: other) was 115 % of control and the T/C (dose: 40.0 mg/kg/injection, schedule: Q01DX001 (ip), vehicle: other) was 105 % of control.
For `O=C(Nc1ccc(CCO)cc1)Nc1cc(C(F)(F)F)ccc1Cl`, the T/C [12] was 100 % of control and the T/C [13] was 95 % of control.
With `NC(=S)NCC12CC3CC(CC(C3)C1)C2` the T/C (dose: 3.0 mg/kg/injection, schedule: Q04DX002 (ip), vehicle: Klucel (hydroxypropylcellulose) (HPC)) was 101 % of control and 114 % of control, the T/C (dose: 6.0 mg/kg/injection, schedule: Q04DX002 (ip), vehicle: Klucel (hydroxypropylcellulose) (HPC)) was 106 % of control and 120 % of control and the T/C (dose: 12.0 mg/kg/injection, schedule: Q04DX002 (ip), vehicle: Klucel (hydroxypropylcellulose) (HPC)) was 112 % of control. For the same compound, the T/C (dose: 12.5 mg/kg/injection, schedule: Q04DX002 (ip), vehicle: Klucel (hydroxypropylcellulose) (HPC)) was 105 % of control and the T/C [14] was 101 % of control.
For `NC(=O)CCC(NC(=O)OCc1ccccc1)C(=O)NCC(=O)O` (stereo unspecified), the T/C [14] was 95 % of control, the T/C (dose: 50.0 mg/kg/injection, schedule: Q04DX002 (ip), vehicle: Klucel (hydroxypropylcellulose) (HPC)) was 92 % of control and the T/C (dose: 100.0 mg/kg/injection, schedule: Q04DX002 (ip), vehicle: Klucel (hydroxypropylcellulose) (HPC)) was 100 % of control.
`C=C=CCCCC` was tested, and the T/C (dose: 75.0 mg/kg/injection, schedule: Q01DX001 (ip), vehicle: saline) was 101 % of control, the T/C (dose: 75.0 mg/kg/injection, schedule: Q04DX003 (ip), vehicle: saline) was 112 % of control and the T/C (dose: 150.0 mg/kg/injection, schedule: Q01DX001 (ip), vehicle: saline) was 111 % of control. For the same compound, the T/C [15] was 104 % of control, the T/C (dose: 300.0 mg/kg/injection, schedule: Q01DX001 (ip), vehicle: saline) was 102 % of control and the T/C (dose: 300.0 mg/kg/injection, schedule: Q04DX003 (ip), vehicle: saline) was 101 % of control.
For `O=C(NS(=O)(=O)c1ccc(Cl)cc1)c1ccccc1`, the T/C [16] was 94 % of control, the T/C (dose: 100.0 mg/kg/injection, schedule: Q04DX003 (ip), vehicle: acetone) was 104 % of control and the T/C (dose: 200.0 mg/kg/injection, schedule: Q04DX003 (ip), vehicle: acetone) was 107 % of control. For the same compound, the T/C (dose: 400.0 mg/kg/injection, schedule: Q04DX003 (ip), vehicle: acetone) was 93 % of control.
`CC(=O)OCC1CCC(NC(=O)NCCF)CC1` (stereo unspecified) was tested, and the T/C (dose: 50.0 mg/kg/injection, schedule: Q01DX001 (ip), vehicle: saline with Tween-80) was 101 % of control, the T/C (dose: 100.0 mg/kg/injection, schedule: Q01DX001 (ip), vehicle: saline with Tween-80) was 106 % of control and the T/C (dose: 200.0 mg/kg/injection, schedule: Q01DX001 (ip), vehicle: saline with Tween-80) was 95 % of control.
For `Cc1cc(Cl)cc([N+](=O)[O-])c1`, the T/C [16] was 96 % of control, the T/C (dose: 200.0 mg/kg/injection, schedule: Q01DX009 (ip), vehicle: saline with Tween-80) was 96 % of control and the T/C (dose: 400.0 mg/kg/injection, schedule: Q01DX009 (ip), vehicle: saline with Tween-80) was 95 % of control.
For `CC(C)NC(=O)N(c1ccccc1)C(C)C`, the T/C [1] was 98 % of control, the T/C [2] was 89 % of control and the T/C [3] was 89 % of control.
`BrC(Br)c1ccccc1C(Br)Br` was tested, and the T/C (dose: 100.0 mg/kg/injection, schedule: Q01DX009 (ip), vehicle: gum acacia) was 98 % of control, the T/C (dose: 100.0 mg/kg/injection, schedule: Q04DX003 (ip), vehicle: gum acacia) was 99 % of control and the T/C (dose: 200.0 mg/kg/injection, schedule: Q01DX009 (ip), vehicle: gum acacia) was 98 % of control. For the same compound, the T/C (dose: 200.0 mg/kg/injection, schedule: Q04DX003 (ip), vehicle: gum acacia) was 108 % of control and the T/C (dose: 400.0 mg/kg/injection, schedule: Q04DX003 (ip), vehicle: gum acacia) was 97 % of control.
In the case of `CCOC(=O)c1cnc(SC)nc1NCCc1ccccc1`, the T/C [12] was 98 % of control, the T/C [13] was 91 % of control and the T/C [17] was 95 % of control.
In the case of `Clc1ccccc1Nc1c2ccccc2nc2ccccc12`, the T/C (dose: 100.0 mg/kg/injection, schedule: Q04DX003 (ip), vehicle: saline) was 100 % of control, the T/C (dose: 200.0 mg/kg/injection, schedule: Q04DX003 (ip), vehicle: saline) was 102 % of control and the T/C (dose: 400.0 mg/kg/injection, schedule: Q04DX003 (ip), vehicle: saline) was 96 % of control.
For `COC1OCC(O)C(NC(=O)N(C)N=O)C1O` (stereo unspecified), the T/C (dose: 6.25 mg/kg/injection, schedule: Q01DX009 (ip), vehicle: saline) was 117 % of control, the T/C (dose: 12.5 mg/kg/injection, schedule: Q01DX009 (ip), vehicle: saline) was 118 % of control and the T/C (dose: 16.5 mg/kg/injection, schedule: Q04DX003 (ip), vehicle: saline) was 108 % of control. The T/C [10] was 150 % of control and 154 % of control, the T/C (dose: 27.3 mg/kg/injection, schedule: Q04DX003 (ip), vehicle: saline) was 112 % of control and the T/C (dose: 33.0 mg/kg/injection, schedule: Q04DX003 (ip), vehicle: saline) was 118 % of control. The T/C (dose: 37.5 mg/kg/injection, schedule: Q01DX009 (ip), vehicle: citric acid) was 152 % of control, the T/C (dose: 75.0 mg/kg/injection, schedule: Q01DX009 (ip), vehicle: citric acid) was 185 % of control and the T/C [11] was 177 % of control and 224 % of control. For the same compound, the T/C [15] was 167 % of control and the T/C (dose: 200.0 mg/kg/injection, schedule: Q01DX009 (ip), vehicle: saline) was 92 % of control.
With `CNC(=S)NNC(=O)c1ccncc1` the T/C [4] was 100 % of control, the T/C [5] was 100 % of control and the T/C [6] was 100 % of control.
`CN(C)CCSC1=CC(=O)c2ccccc2C1=O` was tested, and the T/C (dose: 0.78 mg/kg/injection, schedule: Q01DX009 (ip), vehicle: water) was 91 % of control and the T/C (dose: 1.56 mg/kg/injection, schedule: Q01DX009 (ip), vehicle: water) was 92 % of control.
In the case of `CC(C)CCCC(C)C1CCC2C3CC=C4CC(OC(=O)Nc5ccc(S(=O)(=O)c6ccc(F)cc6)cc5)CCC4(C)C3CCC12C` (stereo unspecified), the T/C (dose: 100.0 mg/kg/injection, schedule: Q01DX001 (sc), vehicle: steriod suspending solution) was 89 % of control, the T/C (dose: 200.0 mg/kg/injection, schedule: Q01DX001 (sc), vehicle: steriod suspending solution) was 92 % of control and the T/C (dose: 400.0 mg/kg/injection, schedule: Q01DX001 (sc), vehicle: steriod suspending solution) was 100 % of control.
`O=c1nc2ccc3[nH]c(O)c4ccc1c2c34` was tested, and the T/C (dose: 50.0 mg/kg/injection, schedule: Q01DX001 (ip), vehicle: saline) was 104 % of control, the T/C (dose: 100.0 mg/kg/injection, schedule: Q01DX001 (ip), vehicle: saline) was 104 % of control and the T/C (dose: 200.0 mg/kg/injection, schedule: Q01DX001 (ip), vehicle: saline) was 104 % of control. For the same compound, the T/C (dose: 400.0 mg/kg/injection, schedule: Q01DX001 (ip), vehicle: saline) was 98 % of control.
In the case of `Cc1ccc(S(=O)(=O)OCC2C3C=CC(C3)C2COS(=O)(=O)c2ccc(C)cc2)cc1` (stereo unspecified), the T/C [12] was 92 % of control, the T/C [7] was 95 % of control and the T/C [13] was 97 % of control. For the same compound, the T/C [8] was 98 % of control, the T/C [17] was 98 % of control and the T/C [9] was 95 % of control.
